We go through 8 compounds from US8865657B2, “Compositions and methods for inactivating or suppressing inflammatory cells” (New York University, priority 2005, dated 2014).

Test [1] deals with Kupffer cells. Briefly: Zymosan-induced respiratory burst (ROS) in Kupffer cells, luminol- or lucigenin-enhanced chemiluminescence.
Text: Liver cell isolation. Liver cells were isolated from female Sprague Dawley rats (230-250 g). Livers were perfused with collagenase as described by Neufeld (Neufeld DS (1997) Isolation of rat liver hepatocytes. Methods in Molecular Biology, Vol 75: Basic Cell Culture Protocols 75: 145-151). Subsequently, liver cells were purified by a combined differential and Percoll gradient centrifugation using a Sorvall HS4 swinging bucket rotor (Smedsrod B, Pertoft H (1985) Preparation of pure hepatocytes and reticuloendothelial cells in high yield from a single rat liver by means of Percoll centrifugation and selective adherence. J.Leukocyte Biol 38: 213-230). After filtration through a 100-μm mesh polypropylene filter (Spectra/Mesh; Spectrum, Laguna Hills, Calif.), the cell suspension was centrifuged for 5 minutes at 50 g resulting in a hepatocyte-enriched pellet and a nonparenchymal cell-enriched supernatant. The nonparenchymal cell-containing supernatant was saved. The pellet was resuspended in ice-cold phosphate-buffered saline (PBS) and mixed in an equal volume of PBS-buffered isotonic Percoll. The gradient was centrifuged for 10 minutes at 50 g. The pellet was resuspended in PBS, centrifuged again, and the final pellet was resuspended in RPMI 1640 medium containing 10% FCS. The nonparenchymal cell-enriched supernatants were centrifuged for 15 minutes at 900 g. The pellet was resuspended in ice-cold PBS, layered over a 2-cushion Percoll gradient (Smedsrod B, Pertoft H (1985) Preparation of pure hepatocytes and reticuloendothelial cells in high yield from a single rat liver by means of Percoll centrifugation and selective adherence. J.Leukocyte Biol 38: 213-230) and centrifuged for 30 minutes at 900 g. The intermediate zone, containing mostly liver endothelial cells, and the bottom cushion, containing mostly Kupffer cells, were saved, mixed with PBS, and centrifuged for 15 minutes at 900 g. The pellet was resuspended in PBS with 1% FCS and the cells further separated into various fractions by centrifugal counterflow elutriation (Knook D L, Sleyster E C (1976) Separation of Kupffer and endothelial cells of the rat liver by centrifugal elutriation. Exp Cell Res 99: 444-449) using the Beckman Coulter JE-5.0 elutriator rotor supplied with a Sanderson chamber (Beckman Coulter, Palo Alto, Calif. USA). The cell suspension was introduced into the elutriator at a flow rate of 12 ml/min, and the elutriator speed set to 3250 rpm. Endothelial cells were obtained at a 32 ml/min flow rate, whereas Kupffer cells were collected at 70 ml/min. The cells were centrifuged at 200 g and resuspended in RPMI-1640 medium containing 10% fetal calf serum. The cell purity and viability were above 95% as determined by peroxidase stain and trypan blue exclusion.
Cell culture. Kupffer cells were seeded into 96-well microtiter plates (0.25×10^6 cells/well) or 24-well plates (1.0×10^6 cells/well). Endothelial cells were plated on 24-well plates (1.5×10^6 cells/well), which had been previously coated with type I collagen (Sigma, St. Louis, Mo.). […] All types of cells were cultivated in RPMI 1640 medium supplemented with 10% fetal calf serum (FCS), 25 mM HEPES, and antibiotics (100 U/ml penicillin G and 100 μg/ml streptomycin sulfate) at 37° C. in 5% CO2. Nonadherent cells were removed after 1 h by replacing medium, and the cells were cultured in the same medium for 18 h and then in RPMI-1640 without FCS for 6 h.
Cell treatment. To study the effect of CSP on cell signaling, the cells were incubated with different concentration of CSP for 0-90 min at 37° C. in 5% CO2. Before use, CSP was dialyzed extensively with 150 mM NaCl, 10 mM HEPES, pH 7.4 and diluted in culture medium.
In test [2] the test system is Kupffer cells. Nature of the test: cAMP radioimmunoassay, intracellular cAMP in Kupffer cells. The format is cell-based, rat. As to the method:
Liver cell isolation. […] The nonparenchymal cell-containing supernatant was saved.
Cell culture. […] HepG2 cells were used on day 3 after plating.
Cell treatment. […] Role of calcium and cyclic AMP. […] J Immunol 174: 2981-2989). […] IBMX was dissolved in dimethyl sulphoxide (DMSO).
cAMP radioimmunoassay. For cAMP determination, liver cell cultures were incubated in culture medium without FCS at 37° C. for 0-90 min. The cultures were then placed on ice, and the reaction was stopped by aspiration of the incubation medium followed by the addition of 1 ml of ice cold 65% (vol/vol) ethanol. The cells were scraped into Eppendorf tubes and centrifuged at 10000 g for 10 min at 4° C. The supernatants were dried in SC110 Speedvac Concentrator (Savant, Farmingdale, N.Y.) at room temperature, and the dried extracts were dissolved in assay buffer for cAMP determination with cAMP [^125I] Direct Biotrak Assay from Amersham Biosciences (Piscataway, N.J.), according to the instructions of the manufacturer. Samples were analyzed with a Beckman LS 6000 scintillation counter. The cAMP level in each sample was normalized to the protein concentration and expressed as fmol/μg of protein. Ethanol-precipitated cell pellets were diluted with 0.15 M NaOH and the protein concentration was measured with the Micro BCA Protein Assay Kit (Pierce Chemical Co., Rockford, Ill.) according to manufacturer's instructions.

Like-named read-outs stand apart in the source and are kept apart here.

`CCCC(=O)Nc1ncnc2c1ncn2[C@@H]1O[C@@H]2COP(=O)(O)O[C@H]2[C@H]1O` [6-MB-cAMP, N6-monobutyryladenosine-3′,5′-cAMP]: in the test with Kupffer cells [1] (3 mM, pretreated 40 minutes, luminol-enhanced chemiluminescence), the “effect on zymosan-induced ROS formation” value was “had no effect”. As for `CO[C@@H]1[C@@H]2OP(=O)(O)OC[C@H]2O[C@H]1n1c(Sc2ccc(Cl)cc2)nc2c(N)ncnc21` [8-CPT-2-Me-cAMP, 8-[4-chlorophenylthio]-2′-O-methyladenosine-3′,5′-cAMP], in the test on Kupffer cells [1], the “effect on zymosan-induced ROS formation” value is recorded as “inhibited”.

As to `[O-][Cl+2]([O-])O` [Chlorate, sodium chlorate, reference compound], in the test on Kupffer cells [2] (Rattus norvegicus, read-out: inhibition of the CSP-induced generation of cAMP), the inhibition at 20000 µM was 20%.

Consider `Cl.Cl.O=S(=O)(NCCNCC=Cc1ccc(Br)cc1)c1cccc2cnccc12` [H-89, N-[2-(p-Bromocinnamylamino)ethyl]-5-isoquinolinesulfonamide dihydrochloride], for which, in the test with Kupffer cells [1], the “effect on the CSP-mediated inhibition of the respiratory burst” value was “failed to prevent”. As for `CC(C)Cn1c(=O)n(C)c(=O)c2[nH]cnc21` [IBMX, 3-isobutyl-1 methylxanthine, reference compound], in the test on Kupffer cells [1] (Rattus norvegicus, read-out: inhibition of the zymosan-induced respiratory burst), the inhibition at 1000 µM was found to be 67%. Further, the “effect on the CSP-induced generation of cAMP” value with Kupffer cells [2] (added 10 min before 50 nM CSP (30 min), RAP 500 nM) is reported as “did not reduce”.

For `C[C@]12N[C@H](Cc3ccccc31)c1ccccc12` [MK-801], in the test with Kupffer cells [1], the “effect on the CSP-mediated inhibition of the respiratory burst” value is recorded as “had no effect”. As for `Nc1ncnc2c1ncn2C1CCCO1` (stereo not drawn) [SQ 22,536, 9-(Tetrahydro-2-furanyl)-9H-purin-6-amine], the “effect on the inhibition of the zymosan-induced respiratory burst by sporozoites” value in the test on Kupffer cells [1] (100 μM SQ 22,536 with P. yoelii sporozoites) is given as “abrogated the inhibitory effect”. Regarding `CCCC(=O)Nc1ncnc2c1ncn2[C@@H]1O[C@@H]2COP(=O)(O)O[C@H]2[C@H]1OC(=O)CCC` [db-cAMP, dibutyryl cAMP], the “inhibition of the zymosan-induced respiratory burst” value in the test on Kupffer cells [1] (1 mM IBMX or 1 mM db-cAMP, luminol-enhanced chemiluminescence) is 22%.
